Assay results reported in patent publication US8492346B2, “Methods of use of epsilon inhibitor compounds for the attenuation of pain” (KAI Pharmaceuticals, Inc., priority 2007, dated 2013).
“Also recorded” adds a separate entry of the source. Read-outs that look alike come from different tables or passages of the source. Marks after values point to notes of the source that are not given here.

Key:
[1] = tested on: carrageenan-induced mechanical hyperalgesia; test: Carrageenan inflammatory pain model, Randall-Selitto paw-withdrawal test; assay type: in vivo, rat; settings: for Mechanical hyperalgesia (PWT): FIG. 18
Method: The nociceptive flexior reflex was quantified on lightly restrained rats by using a Basile Analgesymeter (Randall-Selitto test). Inflammatory hyperlagesia was induced by injection of Carr (1%, 5 uL, i.d.), which was injected unilaterally to the dorsum of the hindpaw one-hour prior to compound administration. The εPKC inhibitor peptide (εV1-2) was injected via systemic routes.
The nociceptive flexior reflex was quantified on lightly restrained rats by using a Basile Analgesymeter (Randall-Selitto test). Inflammatory hyperlagesia was induced by injection of Carr (1%, 5 μL, i.d.), which was injected unilaterally to the dorsum of the hindpaw one-hr prior to compound administration. The εPKC inhibitor peptide (εV1-2) was injected via systemic routes.
The rat carrageenan model has been extensively used to evaluate the response to modulators of inflammatory pain. In the model used for the studies described below, a single 5 microL injection of a 1% solution of carrageenan into the plantar surface of the right hindpaw was used to elicit an inflammatory response resulting in local edema and mechanical hyperalgesia. The mechanical hyperalgesia was quantitated as previously described using measurements of the nociceptive flexion reflex (Randall-Selitto paw-withdrawal test) in response to mechanical painful stimulation at the site of carrageenan injection. […] In the absence of further treatment, the PWT remained stable at ˜55 g for several hours, making it possible to use this model to evaluate the time-course of the response to treatment over the course of at least six hours after the establishment of the disease state.

[2] = tested on: incision pain; test: Brennan incision model; assay type: in vivo; settings: preliminary, doses similar to carrageenan model
Text: (§1) While experiments with these models are continuing, additional work is being done in other pain models.

[3] = tested on: spared nerve pain; test: Single spared nerve model; assay type: in vivo; settings: preliminary, doses similar to carrageenan model
Text: as §1

[4] = Rat pharmacokinetics, plasma levels by sandwich-based ELISA; assay type: in vivo
Method: To initially characterize the pharmacokinetics of KAI-1678 in rats, male rats were administered KAI-1678 at doses of 100 and 1,000 mcg/rat (˜300 and ˜3,000 mcg/kg) as an IV bolus injection via the tail vein. Blood samples were withdrawn periodically for up to two hours following the injection for plasma analysis of KAI-1678 levels. There were three and two animals in the 100 and 1,000 mcg dose groups, respectively, and there was consistency in KAI-1678 plasma concentrations between animals in each dose group.
In the experiment shown in FIG. 29, male rats were administered KAI-1678 as a subcutaneous bolus injection (200 microL into the left hindleg) at doses of 25 or 250 mcg/animal (approximately 80 and 800 mcg/kg, respectively). Blood samples were taken at various time points over two hours after administration of the compound to determine plasma concentrations of KAI-1678. There were three and four animals in the 25 and 250 mcg/animal dose groups, respectively, and the KAI-1678 plasma concentration measurements were consistent between animals in each dose group. Cmax occurred within 10 minutes after injection and increased in a dose-proportional manner over the two doses tested.
In the experiment shown in FIG. 30, male rats were administered KAI-1678 as a continuous subcutaneous infusion for 2 hours at doses of 19 and 190 mcg/kg/hr. Blood samples were taken at various time points throughout the infusion and for 1 hour after the end of infusion to determine plasma concentrations of KAI-1678. There were two animals per dose group and the plasma KAI-1678 concentration measurements were consistent between animals in each dose group. At the lower dose rate (19 mcg/kg/hr), plasma concentrations reached steady state (˜3 ng/mL) by 60 minutes and remained relatively constant throughout the rest of the infusion. […] At both dose rates, plasma concentrations of KAI-1678 dropped quickly after the end of infusion although compound was still detectable at both dose levels one hour after the end of infusion.

[5] = Dog toxicokinetics and tissue levels, 5-day subcutaneous infusion; settings: for Tissue level, Dose Site Muscle, Mean / Tissue level, Dose Site Skin, Mean / Tissue level, Kidney, Mean / Tissue level, Liver, Mean / Tissue level, Lung, Mean / Tissue level, Peripheral Nerve, Mean / Tissue level, Skeletal Muscle, Mean / Tissue level, Spinal Cord, Mean / Tissue level, Brain, Mean: 25 mg/kg/day sc infusion five days
Text: The pharmacokinetics of KAI-1678 are being studied in rats administered the compound as an intravenous bolus and infusion or as a subcutaneous bolus and infusion. The toxicokinetics of KAI-1678 are being studied in dogs administered the compound as a subcutaneous infusion as part of the toxicity studies. In these studies, plasma levels of KAI-1678 have been determined using a sandwich-based ELISA assay developed at KAI Pharmaceuticals. The lower limit of quantitation of this assay is approximately 0.3 ng/mL. A similar assay has been developed to measure tissue levels of KAI-1678.
As part of a range-finding toxicology study, 6 beagle dogs (one per sex per group) were administered continuous subcutaneous infusions of KAI-1678 for 5 days at dose levels of 3, 8 and 25 mg/kg/day. Blood samples were collected at various times on Day 1 (start of infusion) and Day 6 (after the end of infusion).
As part of this study, tissues were harvested from a subset of the animals at the end of dosing.

[6] = Rat pharmacokinetics, plasma levels by sandwich-based ELISA; assay type: in vivo; remark: listed apart in the source

With Ac-EAVSLKPTGGYGRKKRRQRRR-NH2 [KAI-1678] the “Ability to reverse mechanical hyperalgesia in sympathectomized animals” value ([1]; 25 mcg/kg/hr subcutaneous infusion, contralateral hindlimb, FIG. 24) was “abrogated”, the “Carrageenan-induced mechanical hyperalgesia after sciatic and saphenous nerve transection” value ([1]; 25 mcg/kg/hr subcutaneous infusion, contralateral limb, proximal or distal to transection, FIG. 23) was “effective at eliminating carrageenan-induced mechanical hyperalgesia when the site of compound administration was proximal, but not distal, to the site of nerve transection” and the Carrageenan-induced mechanical hyperalgesia ([1]; IV infusion, rates as high as 1000 mcg/kg/hr for as long as 5 hours, FIG. 22) was “had no effect on carrageenan-induced mechanical hyperalgesia”. The “Mechanical hyperalgesia (PWT)” value ([1]; intradermal 10 mcg/kg, ipsilateral hindpaw) was “completely reverse the mechanical hyperalgesia”, the “Mechanical hyperalgesia (PWT)” value ([1]; intradermal 10 or 100 mcg/kg, contralateral hindpaw) was “completely reverse the mechanical hyperalgesia” and the “Time to complete reversal of mechanical hyperalgesia” value ([1]; intradermal 100 mcg/kg, ipsilateral) was no more than 5 min. For the same substance, the “Mechanical hyperalgesia (PWT)” value ([1]; intradermal 100 mcg/kg, ipsilateral hindpaw) was “increasing the PWT beyond the pre-carrageenan levels”, the “Lowest dose completely reversing mechanical hyperalgesia” value ([1]; subcutaneous bolus, contralateral hindlimb, for a short period) was 0.1 µg/kg and the “Pain response (mechanical hyperalgesia)” value ([1]; subcutaneous bolus, thigh of contralateral hindlimb, FIG. 19) was “dose-dependent suppression in the pain response”. For the same substance, the Reversal of pain ([1]; subcutaneous infusion 250 mcg/kg/hr) was “rapid and sustained without any recurrence of hyperalgesia”, the “Effect on mechanical hyperalgesia” value ([1]; subcutaneous infusion 25,000 mcg/kg/hr, data not shown) was “comparable to that seen with the 250 mcg/kg/hr infusion” and the “Mechanical hyperalgesia, first phase of subcutaneous infusion” value ([1]; subcutaneous infusion, first phase approximately one hour, FIG. 21) was “rapid and complete reversal of the mechanical hyperalgesia at all doses tested”. For the same substance, the “Dose rate completely reversing mechanical hyperalgesia in second phase” value ([1]; subcutaneous infusion, second phase two to three hours after start) was no less than 25 µg/kg/h, the “Activity in Brennan incision model” value [2] was “also active in these models” and the “Activity in single spared nerve model” value [3] was “also active in these models”. For the same substance, the “Clearance from systemic circulation” value ([4]; intravenous bolus) was “rapidly cleared from systemic circulation”, the level at 1 h ([4]; male, rat, plasma, sc, 19 ug/kg/hr, subcutaneous infusion 19 mcg/kg/hr, by 60 minutes, read-out: Steady state plasma concentration) was roughly 3 ng/mL and the Tmax ([4]; male, rat, plasma, sc, subcutaneous bolus, read-out: Time of maximum plasma concentration (converted)) was roughly 10 min. For the same substance, the half-life ([4]; rat, in vivo, iv, 300 ug/kg, IV bolus ~300 mcg/kg, preliminary, read-out: Terminal half-life) was roughly 38 min, the half-life ([4]; rat, in vivo, iv, IV bolus ~300 mcg/kg, preliminary, read-out: Terminal half-life) was roughly 38 min and the half-life ([4]; rat, in vivo, iv, IV bolus ~3,000 mcg/kg, preliminary, read-out: Terminal half-life) was roughly 66 min. It also gave a half-life ([4]; rat, in vivo, iv, intravenous bolus, read-out: Terminal half-life) of roughly 50 min, a half-life ([4]; rat, in vivo, sc, 800 ug/kg, subcutaneous bolus approximately 80 and 800 mcg/kg, read-out: Terminal half-life) of roughly 35 min and a half-life ([4]; rat, in vivo, sc, subcutaneous infusion, read-out: Half-life after end of infusion) of roughly 30 min. For the same substance, the Cmax ([4]; rat, in vivo, sc, subcutaneous infusion 190 mcg/kg/hr for 2 hours) was roughly 60 ng/mL, the bioavailability ([4]; rat, in vivo, sc, subcutaneous route vs intravenous bolus) was roughly 10% and the “Dose proportionality of exposure” value ([4]; subcutaneous bolus (80, 800 mcg/kg) or infusion (19, 190 mcg/kg/hr)) was “dose-proportional increases in exposures”. For the same substance, the “Half-life after end of infusion” value ([4]; subcutaneous infusion) was roughly 45 min, the “Time of maximum plasma concentration” value ([4]; subcutaneous infusion) was roughly 1 h and the “Tissue level, Dose Site Muscle, Mean” value ([5]; Animal 4001, male) was 111 ng KAI-1678/g tissue. The “Tissue level, Dose Site Skin, Mean” value ([5]; Animal 4001, male) was 1139 ng KAI-1678/g tissue, the “Tissue level, Kidney, Mean” value ([5]; Animal 4001, male) was 689 ng KAI-1678/g tissue and the “Tissue level, Liver, Mean” value ([5]; Animal 4001, male) was 224 ng KAI-1678/g tissue. The “Tissue level, Lung, Mean” value ([5]; Animal 4001, male) was 254 ng KAI-1678/g tissue, the “Tissue level, Peripheral Nerve, Mean” value ([5]; Animal 4001, male) was 429 ng KAI-1678/g tissue and the “Tissue level, Skeletal Muscle, Mean” value ([5]; Animal 4001, male) was 133 ng KAI-1678/g tissue. For the same substance, the “Tissue level, Spinal Cord, Mean” value ([5]; Animal 4001, male) was 11 ng KAI-1678/g tissue, the “Tissue level, Brain, Mean” value ([5]; Animal 4001, male, includes a data point below limit of quantitation) was 6* ng KAI-1678/g tissue and the “Tissue level, Brain, Mean” value ([5]; Animal 4501, female) was 7 ng KAI-1678/g tissue. For the same substance, the “Tissue level, Dose Site Muscle, Mean” value ([5]; Animal 4501, female) was 1003 ng KAI-1678/g tissue, the “Tissue level, Dose Site Skin, Mean” value ([5]; Animal 4501, female) was 6165 ng KAI-1678/g tissue and the “Tissue level, Kidney, Mean” value ([5]; Animal 4501, female) was 3054 ng KAI-1678/g tissue. For the same substance, the “Tissue level, Liver, Mean” value ([5]; Animal 4501, female) was 1505 ng KAI-1678/g tissue, the “Tissue level, Lung, Mean” value ([5]; Animal 4501, female) was 1364 ng KAI-1678/g tissue and the “Tissue level, Peripheral Nerve, Mean” value ([5]; Animal 4501, female) was 155 ng KAI-1678/g tissue. For the same substance, the “Tissue level, Skeletal Muscle, Mean” value ([5]; Animal 4501, female) was 33 ng KAI-1678/g tissue, the “Tissue level, Spinal Cord, Mean” value ([5]; Animal 4501, female) was 140 ng KAI-1678/g tissue and the “Clearance from systemic circulation / plasma level after end of infusion” value ([5]; subcutaneous infusion over 5 days, 3, 8 and 25 mg/kg/day) was “rapidly cleared from the systemic circulation; also recorded: declined quickly upon cessation of infusion”. The “Levels in brain and spinal cord” value ([5]; subcutaneous infusion over 5 days, end of infusion) was “consistently low”, the “Steady state plasma concentration” value ([6]; 2-hr intravenous infusion at 50 mcg/kg/hr) was 10 to 20 ng/mL and the half-life ([6]; rat, in vivo, iv, intravenous infusion, read-out: Terminal half-life) was roughly 25 min.
